The record followed here is PubChem BioAssay AID330 (DTP/NCI, 2004).

Several values for one entry are separate records, joined by “and”; a condition that tells them apart may be missing. Equal values may be shown once. Toxic doses and inconclusive results are not listed.

The test relates to P388 leukemia ip, CD2F1 mice, survival T/C. The test can be described thus: NCI In Vivo Anticancer Drug Screen. Data for tumor model P388 Leukemia (intraperitoneal) in CD2F1 (CDF1) mice. The following applies: endpoint: median survival time, higher = longer survival. In outline: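 Mice carrying the transplanted tumor received test compound or vehicle. Survival was recorded in each group, and the value is the treated-group measurement divided by that of the vehicle-treated control group.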

Where [1] appears, read: dose: 60.0 mg/kg/injection, schedule: Q01DX005 (ip), vehicle: saline with Tween-80.
The mark [2] stands for this setting: dose: 120.0 mg/kg/injection, schedule: Q01DX005 (ip), vehicle: saline with Tween-80.
The mark [3] stands for this setting: dose: 50.0 mg/kg/injection, schedule: Q01DX005 (ip), vehicle: saline.
Setting [4] is: dose: 100.0 mg/kg/injection, schedule: Q01DX005 (ip), vehicle: saline.
Setting [5] is: dose: 200.0 mg/kg/injection, schedule: Q01DX005 (ip), vehicle: saline.
[6] abbreviates: dose: 50.0 mg/kg/injection, schedule: Q01DX005 (ip), vehicle: Klucel (hydroxypropylcellulose) (HPC).
[7] abbreviates: dose: 100.0 mg/kg/injection, schedule: Q01DX005 (ip), vehicle: Klucel (hydroxypropylcellulose) (HPC).
The mark [8] stands for this setting: dose: 200.0 mg/kg/injection, schedule: Q01DX005 (ip), vehicle: Klucel (hydroxypropylcellulose) (HPC).
Setting [9] is: dose: 100.0 mg/kg/injection, schedule: Q01DX001 (ip), vehicle: saline with Tween-80.
Setting [10] is: dose: 200.0 mg/kg/injection, schedule: Q01DX001 (ip), vehicle: saline with Tween-80.
The mark [11] stands for this setting: dose: 100.0 mg/kg/injection, schedule: Q04DX003 (ip), vehicle: saline with Tween-80.
Where [12] appears, read: dose: 200.0 mg/kg/injection, schedule: Q04DX003 (ip), vehicle: saline with Tween-80.
The mark [13] stands for this setting: dose: 100.0 mg/kg/injection, schedule: Q04DX002 (ip), vehicle: saline.
Where [14] appears, read: dose: 200.0 mg/kg/injection, schedule: Q04DX002 (ip), vehicle: saline.
Setting [15] is: dose: 50.0 mg/kg/injection, schedule: Q01DX005 (ip), vehicle: saline with Tween-80.
The mark [16] stands for this setting: dose: 100.0 mg/kg/injection, schedule: Q01DX005 (ip), vehicle: saline with Tween-80.
The mark [17] stands for this setting: dose: 200.0 mg/kg/injection, schedule: Q01DX005 (ip), vehicle: saline with Tween-80.
[18] abbreviates: dose: 100.0 mg/kg/injection, schedule: Q01DX009 (ip), vehicle: saline with Tween-80.
[19] abbreviates: dose: 200.0 mg/kg/injection, schedule: Q01DX009 (ip), vehicle: saline with Tween-80.
Where [20] appears, read: dose: 50.0 mg/kg/injection, schedule: Q01DX009 (ip), vehicle: saline with Tween-80.

For the compound `CCOC(=O)C1=C(C(=O)c2ccccc2)C(c2ccccc2[N+](=O)[O-])C(C(=O)c2ccccc2)=C(C(=O)OCC)N1`, the T/C under setting [1] was 101 % of control and the T/C under setting [2] was 98 % of control.

Consider `CCCCCCCCCCCCC1OCN2CCCCC12` (centres undefined), for which the T/C runs as follows: under setting [3], 106 % of control; under setting [4], 100 % of control; under setting [5], 113 % of control.

For `CCOC(=O)C[N+]1(C)C2CCC1CC(OC(=O)C(CO)c1ccccc1)C2` (centres undefined), the T/C by setting is: (dose: 12.5 mg/kg/injection, schedule: Q01DX009 (ip), vehicle: saline) 100 % of control; (dose: 25.0 mg/kg/injection, schedule: Q01DX009 (ip), vehicle: saline) 100 % of control.

As for `O[Si](c1ccccc1)(c1ccccc1)c1ccccc1.O[Si](c1ccccc1)(c1ccccc1)c1ccccc1.O[Si](c1ccccc1)(c1ccccc1)c1ccccc1.[O]=[V]`, the T/C is 92 % of control under setting [6], 90 % of control under setting [7] and 92 % of control under setting [8].

As for `COC1(CO)OCC(O)C(O)C1O` (centres undefined), the T/C is, setting by setting: under setting [3], 91 % of control; under setting [4], 93 % of control; under setting [5], 101 % of control.

Regarding `CC(=O)NCCc1nc(-c2nc(C(=O)NCCC[S+](C)C)cs2)cs1`, the T/C reads like this: (dose: 1.56 mg/kg/injection, schedule: Q01DX005 (ip), vehicle: saline with Tween-80) 107 % of control; (dose: 3.13 mg/kg/injection, schedule: Q01DX005 (ip), vehicle: saline with Tween-80) 107 % of control; (dose: 6.25 mg/kg/injection, schedule: Q01DX005 (ip), vehicle: saline with Tween-80) 100 % of control and 105 % of control; (dose: 25.0 mg/kg/injection, schedule: Q01DX005 (ip), vehicle: saline with Tween-80) 96 % of control.

Turning to `Cc1cc2nc(C(C)(C)F)c(=O)[nH]c2cc1C`, the T/C runs as follows: under setting [9], 102 % of control; under setting [10], 94 % of control; (dose: 400.0 mg/kg/injection, schedule: Q01DX001 (ip), vehicle: saline with Tween-80) 96 % of control.

Consider `CN(c1ccccc1)c1c2c(oc(=O)c1Cl)CCSC2`, for which the T/C is, setting by setting: under setting [11], 94 % of control; under setting [12], 98 % of control; (dose: 400.0 mg/kg/injection, schedule: Q04DX003 (ip), vehicle: saline with Tween-80) 91 % of control.

Regarding `CC(=O)OC1CSC(OC(C)=O)C(OC(C)=O)C1[N+](=O)[O-]` (centres undefined), the T/C reads like this: under setting [13], 99 % of control; under setting [14], 115 % of control.

In the case of `O=C(Nc1cccc(Cl)c1Cl)Oc1ccc(Cl)cc1C(=O)c1ccccc1`, the T/C (dose: 50.0 mg/kg/injection, schedule: Q01DX009 (ip), vehicle: saline) was 94 % of control; the T/C (dose: 100.0 mg/kg/injection, schedule: Q01DX009 (ip), vehicle: saline) was 89 % of control; the T/C (dose: 200.0 mg/kg/injection, schedule: Q01DX009 (ip), vehicle: saline) was 99 % of control.

In the case of `O=C1Oc2ccccc2CC1C(=O)c1ccc([N+](=O)[O-])cc1` (centres undefined), the T/C reads like this: under setting [15], 99 % of control; under setting [16], 106 % of control; under setting [17], 103 % of control.

Regarding `O=C(O)c1nn(-c2ccccc2)c2c1CSc1ccccc1-2`, the T/C by setting is: under setting [9], 109 % of control; under setting [10], 104 % of control.

As to `COc1cccc(OC)c1C(=O)Nc1cccc(NC(=O)c2c(OC)cccc2OC)n1`, the T/C was 95 % of control under setting [15], 93 % of control under setting [16] and 93 % of control under setting [17].

On to `CCCCCCC[CH2][Sn]([F])([F])[CH2]CCCCCCC`, for which the T/C was 102 % of control (dose: 12.5 mg/kg/injection, schedule: Q04DX003 (ip), vehicle: saline); 106 % of control and 108 % of control (dose: 25.0 mg/kg/injection, schedule: Q04DX003 (ip), vehicle: saline); 106 % of control and 116 % of control (dose: 50.0 mg/kg/injection, schedule: Q04DX003 (ip), vehicle: saline); 101 % of control and 109 % of control and 121 % of control (dose: 100.0 mg/kg/injection, schedule: Q04DX003 (ip), vehicle: saline).

Consider `Cc1cc(Br)c(NC(=O)c2c(-c3c(Cl)cccc3Cl)noc2C)c(Br)c1`, for which the T/C reads like this: (dose: 60.0 mg/kg/injection, schedule: Q01DX005 (ip), vehicle: Klucel (hydroxypropylcellulose) (HPC)) 88 % of control; (dose: 120.0 mg/kg/injection, schedule: Q01DX005 (ip), vehicle: Klucel (hydroxypropylcellulose) (HPC)) 95 % of control.

Turning to `O=C(Oc1c(Br)c(N(C(=O)c2ccccc2)c2ccccc2)c(OC(=O)c2ccccc2)c(Br)c1N(C(=O)c1ccccc1)c1ccccc1)c1ccccc1`, the T/C is 91 % of control under setting [15], 95 % of control under setting [16] and 89 % of control under setting [17].

In the case of `COC(=O)C1=C(C(=O)OC)P2(C)(C)OC(c3ccccc3)CN2C1(c1ccccc1)c1ccccc1` (centres undefined), the T/C runs as follows: under setting [6], 98 % of control; under setting [7], 100 % of control; under setting [8], 91 % of control.

Regarding `Cc1cc(C)n2c(-c3ccccc3)c(C)c(C(N)=O)c2n1`, the T/C reads like this: under setting [1], 98 % of control; under setting [2], 99 % of control; (dose: 240.0 mg/kg/injection, schedule: Q01DX005 (ip), vehicle: saline with Tween-80) 100 % of control.

Take `FC(F)(F)c1nc2nc(Cl)c(Cl)nc2[nH]1`: the T/C runs as follows: (dose: 25.0 mg/kg/injection, schedule: Q04DX003 (ip), vehicle: other) 100 % of control; (dose: 50.0 mg/kg/injection, schedule: Q04DX003 (ip), vehicle: other) 109 % of control.

Take `O=[N+]([O-])c1ccc(C(Nc2nncs2)Nc2nncs2)cc1`: the T/C was 100 % of control under setting [6], 103 % of control under setting [7] and 119 % of control under setting [8].

With `CCCc1c2c(c(CCC)c3c1-c1cccc4cccc-3c14)-c1ccccc1C2=O`, the T/C runs as follows: under setting [11], 105 % of control; under setting [12], 95 % of control.

Take `CNC(=O)OCc1c(COC(=O)NC)c(-c2ccc([N+](=O)[O-])cc2)n(C)c1C`: the T/C is, setting by setting: (dose: 6.25 mg/kg/injection, schedule: Q01DX009 (ip), vehicle: distilled water + Tween-80) 151 % of control and 153 % of control; (dose: 12.5 mg/kg/injection, schedule: Q01DX009 (ip), vehicle: distilled water + Tween-80) 159 % of control and 169 % of control.

With `O=C(O)CCCCCCCCC#CC#CCO`, the T/C runs as follows: under setting [15], 101 % of control; under setting [16], 99 % of control; under setting [17], 95 % of control.

Turning to `CC1=CC(=O)C(/C=C(\C)[N+](=O)[O-])=CC1=O`, the T/C by setting is: (dose: 12.5 mg/kg/injection, schedule: Q01DX009 (ip), vehicle: Klucel (hydroxypropylcellulose) (HPC)) 97 % of control; (dose: 25.0 mg/kg/injection, schedule: Q01DX009 (ip), vehicle: Klucel (hydroxypropylcellulose) (HPC)) 99 % of control.

With `CCOC(=O)/C(C#N)=C/P(=O)(OCC)OCC`, the T/C is 101 % of control (dose: 3.12 mg/kg/injection, schedule: Q04DX003 (ip), vehicle: Klucel (hydroxypropylcellulose) (HPC)); 100 % of control (dose: 6.25 mg/kg/injection, schedule: Q04DX003 (ip), vehicle: Klucel (hydroxypropylcellulose) (HPC)); 99 % of control (dose: 12.5 mg/kg/injection, schedule: Q04DX003 (ip), vehicle: Klucel (hydroxypropylcellulose) (HPC)).

Take `COc1cccc(CCl)c1`: the T/C is 110 % of control and 118 % of control under setting [18]; 117 % of control and 124 % of control under setting [19].

For `COc1cc(-c2ccc(NC(=O)Nc3nccs3)c(OC)c2)ccc1NC(=O)Nc1nccs1`, the T/C reads like this: under setting [20], 95 % of control; under setting [18], 98 % of control; under setting [19], 96 % of control.

For the compound `NNC(=O)CCCCCCCCCCCCCCCO`, the T/C is, setting by setting: (dose: 12.5 mg/kg/injection, schedule: Q01DX009 (ip), vehicle: saline with Tween-80) 97 % of control; (dose: 25.0 mg/kg/injection, schedule: Q01DX009 (ip), vehicle: saline with Tween-80) 88 % of control; under setting [20], 88 % of control.

`CC(C)=CC(=O)NCCO`: the T/C reads like this: under setting [13], 100 % of control; under setting [14], 100 % of control; (dose: 400.0 mg/kg/injection, schedule: Q04DX002 (ip), vehicle: saline) 105 % of control.
